In patent US20190343908A1, “Therapeutic Combination for the Treatment of Cancer” (Nerium Biotechnology Inc., priority 2011, published 2019):

Tests used:
[1] = test system: CALU-1 (non-small cell lung carcinoma); assay: Methyl-Tetrazolium viability assay, CALU-1; format: cell-based, human
Description: (§1) Three different viability assays were chosen to complement each other and yielded results dependent on concentration and cell line: the Methyl Tetrazolium dye assay, the Sulforhodamine B fluorescent dye assay, and the Crystal Violet dye assay.
(§2) The Methyl-Tetrazolium dye assay measures the activity of enzymes in mitochondria. The dye precursor is taken up by cells, where it undergoes reduction to the purple formazan. It measures only the mitochondrial activity and, thus, it is not always a reliable indication of whether the cells themselves are alive or dead, since even a recently dead cell has […] enzyme activity in mitochondria. Intracellular glucose concentration, pH, and time before assay all affect the measurements.
(§3) The Methyl Tetrazolium, Sulforhodamine B, and Crystal Violet assays were used to assess cell viabilities. The incubation times were 24 hours, 48 hours, and 72 hours. The Nerium oleander extract Anvirzel™ (a hot water extract of oleander obtained from Salud Integral, Honduras) was tested in concentrations ranging from 0.01 ng/mL to 10 ng/mL.
(§4) Cells were detached by trypsinization (Trypsin-0.25% EDTA, Invitrogen, 25200-072) during the logarithmic phase of culture growth and plated in 96-well plates (18.000 cells/well) (Corning, Costar 359) in a final volume of 200 μl of medium per well. […] The absorbance was measured after 24 hours, 48 hours, and 72 hours of incubation.
(§5) For the Methyl-Tetrazolium assay, the dye (Sigma, M2128; 5 mg/mL, diluted in phosphate-buffered saline) was added to each well and plates were incubated for 3 hours at 37° C. After the end of the incubation period, the medium was discarded and the cells were rinsed with phosphate-buffered saline. Finally, the formazan crystals were dissolved in dimethylsulphoxide (Sigma, D4540).
(§6) The optical density of each plate was measured on a μQuant spectrophotometer and the data were analyzed with Gen5 software (μQuant Biomolecular Spectrophotometer MQX200 and Gen5™ Microplate Data Collection & Analysis software, BioTek® Instruments. Inc, April 2008). Absorbance was measured at 570 nm for all assays and a second wavelength was measured in order to subtract noise. For the Methyl-Tetrazolium assay this second wavelength was 630 nm and for the Sulforhodamine B and Crystal Violet assays it was 690 nm.

[2] = test system: 22Rv1 (human prostate cancer); assay: Methyl-Tetrazolium (MTT) viability assay, 22Rv1; format: cell-based
Description: as §1, §2, §3, §4, §5, §6

SMILES: N.N.[Cl][Pt][Cl] [cisplatin]
- Average MTT 24 h ([1]; CALU-1 Run 1, 0.1 μg/ml CDDP): 0.178
- Average MTT 48 h ([1]; CALU-1 Run 1, 0.1 μg/ml CDDP): 0.272
- Average MTT 72 h ([1]; CALU-1 Run 1, 0.1 μg/ml CDDP): 0.272
- Average MTT 24 h ([1]; CALU-1 Run 1, 1 μg/ml CDDP): 0.024
- Average MTT 48 h ([1]; CALU-1 Run 1, 1 μg/ml CDDP): 0.024
- Average MTT 72 h ([1]; CALU-1 Run 1, 1 μg/ml CDDP): 0.032
- Average MTT 24 h ([1]; CALU-1 Run 1, 10 μg/ml CDDP): 0.043
- Average MTT 48 h ([1]; CALU-1 Run 1, 10 μg/ml CDDP): 0.031
- Average MTT 72 h ([1]; CALU-1 Run 1, 10 μg/ml CDDP): 0.024
- Average MTT 24 h ([1]; CALU-1 Run 1, 100 μg/ml CDDP): 0.033
- Average MTT 48 h ([1]; CALU-1 Run 1, 100 μg/ml CDDP): 0.033
- Average MTT 72 h ([1]; CALU-1 Run 1, 100 μg/ml CDDP): 0.019
- Average MTT 24 h ([1]; CALU-1 Run 2, 0.1 μg/ml CDDP): 0.244
- Average MTT 48 h ([1]; CALU-1 Run 2, 0.1 μg/ml CDDP): 0.322
- Average MTT 72 h ([1]; CALU-1 Run 2, 0.1 μg/ml CDDP): 0.29
- Average MTT 24 h ([1]; CALU-1 Run 2, 1 μg/ml CDDP): 0.055
- Average MTT 48 h ([1]; CALU-1 Run 2, 1 μg/ml CDDP): 0.024
- Average MTT 72 h ([1]; CALU-1 Run 2, 1 μg/ml CDDP): 0.021
- Average MTT 24 h ([1]; CALU-1 Run 2, 10 μg/ml CDDP): 0.056
- Average MTT 48 h ([1]; CALU-1 Run 2, 10 μg/ml CDDP): 0.019
- Average MTT 72 h ([1]; CALU-1 Run 2, 10 μg/ml CDDP): 0.015
- Average MTT 24 h ([1]; CALU-1 Run 2, 100 μg/ml CDDP): 0.035
- Average MTT 48 h ([1]; CALU-1 Run 2, 100 μg/ml CDDP): 0.016
- Average MTT 72 h ([1]; CALU-1 Run 2, 100 μg/ml CDDP): 0.018
- Average MTT 24 h ([1]; CALU-1 Run 3, 0.1 μg/ml CDDP, 24 h): 0.178
- Average MTT 48 h ([1]; CALU-1 Run 3, 0.1 μg/ml CDDP, 48 h): 0.281
- Average MTT 72 h ([1]; CALU-1 Run 3, 0.1 μg/ml CDDP, 72 h): 0.295
- Average MTT 24 h ([1]; CALU-1 Run 3, 1 μg/ml CDDP, 24 h): 0.029
- Average MTT 48 h ([1]; CALU-1 Run 3, 1 μg/ml CDDP, 48 h): 0.033
- Average MTT 72 h ([1]; CALU-1 Run 3, 1 μg/ml CDDP, 72 h): 0.031
- Average MTT 24 h ([1]; CALU-1 Run 3, 10 μg/ml CDDP, 24 h): 0.057
- Average MTT 48 h ([1]; CALU-1 Run 3, 10 μg/ml CDDP, 48 h): 0.025
- Average MTT 72 h ([1]; CALU-1 Run 3, 10 μg/ml CDDP, 72 h): 0.022
- Average MTT 24 h ([1]; CALU-1 Run 3, 100 μg/ml CDDP, 24 h): 0.028
- Average MTT 48 h ([1]; CALU-1 Run 3, 100 μg/ml CDDP, 48 h): 0.026
- Average MTT 72 h ([1]; CALU-1 Run 3, 100 μg/ml CDDP, 72 h): 0.002
- MTT 24 h Average ([2]; 22Rv1 Run 1, 0.1 μg/ml CDDP): 0.042
- MTT 48 h Average ([2]; 22Rv1 Run 1, 0.1 μg/ml CDDP): 0.141
- MTT 72 h Average ([2]; 22Rv1 Run 1, 0.1 μg/ml CDDP): 0.168
- MTT 24 h Average ([2]; 22Rv1 Run 1, 1 μg/ml CDDP): 0.013
- MTT 48 h Average ([2]; 22Rv1 Run 1, 1 μg/ml CDDP): 0.013
- MTT 72 h Average ([2]; 22Rv1 Run 1, 1 μg/ml CDDP): 0.015
- MTT 24 h Average ([2]; 22Rv1 Run 1, 10 μg/ml CDDP): 0.033
- MTT 48 h Average ([2]; 22Rv1 Run 1, 10 μg/ml CDDP): 0.013
- MTT 72 h Average ([2]; 22Rv1 Run 1, 10 μg/ml CDDP): 0.01
- MTT 24 h Average ([2]; 22Rv1 Run 1, 100 μg/ml CDDP): 0.011
- MTT 48 h Average ([2]; 22Rv1 Run 1, 100 μg/ml CDDP): 0.008
- MTT 72 h Average ([2]; 22Rv1 Run 1, 100 μg/ml CDDP): 0.009
- MTT 24 h Average ([2]; 22Rv1 Run 2, 0.1 μg/ml CDDP): 0.077
- MTT 48 h Average ([2]; 22Rv1 Run 2, 0.1 μg/ml CDDP): 0.172
- MTT 72 h Average ([2]; 22Rv1 Run 2, 0.1 μg/ml CDDP): 0.29
- MTT 24 h Average ([2]; 22Rv1 Run 2, 1 μg/ml CDDP): 0.011
- MTT 48 h Average ([2]; 22Rv1 Run 2, 1 μg/ml CDDP): 0.014
